Measurements taken from patent US10159640B2, “Prebiotic oral care compositions containing amino acids” (COLGATE-PALMOLIVE COMPANY, priority 2013, dated 2018).

Legend:
[1] = tested on: beneficial oral bacteria and pathogenic oral bacteria; assay: Metabolic activity, whole panel: prebiotic effect; format: cell-based; details: threshold value of 2
Procedure, shortened: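 Biolog phenotype microarrays with dipeptide-preloaded wells; each species suspended in IF-0 with Redox Dye Mix D (85% transmittance) plus succinate/ferric citrate, incubated anaerobically at 37° C. Tetrazolium reduction read at 492 nm at 24 and 48 h versus no-dipeptide controls; values are means of three biological replicates.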

[2] = tested on: beneficial oral bacteria and pathogenic oral bacteria; assay: Biofilm growth, whole panel: prebiotic effect; format: cell-based; details: threshold value of 1.6
Method: Substrates that were able to increase the biofilm mass of at least one of the above beneficial bacteria while not or only minimally increasing the biofilm mass of the pathogenic bacteria are considered to be prebiotic compounds.
The increase in biofilm formation of the tested bacteria in response to selected compounds (Met-Pro, Phe-Glu) was investigated by setting up biofilm growth assays in a nutritionally rich medium (brain heart infusion broth (BHI), Oxoid), over 48 hours. Late exponential growth phase liquid cultures were prepared by transferring the respective bacterium from blood agar plates to BHI and overnight incubation at 37° C. in an anaerobic atmosphere for A. viscosus, V. parvula, F. nucleatum, P. gingivalis, P. intermedia, T. forsythia, A. naeslundii, and C. sputigena, and in a 5% CO2 environment for S. salivarius, S. sanguinis, S. mitis, A. actinomycetemcomitans, S. mutans, and S. gordonii. Overnight cultures were transferred to BHI and adjusted to a concentration of 1×10^7 CFU/ml by measuring the optical density at 600 nm (OD600) (BioRad SmartSpec 3000). For each strain, 200 μl of the bacterial suspension was added to a 96-well plate containing 20 μl of the respective di-peptides. Final concentrations of the di-peptides were set to 5, 10, 20 and 25 μmol/ml. […] Additionally, for each bacterium tested, a background control, to correct for background staining, was added. This background control contained the bacterium tested and 0.03 weight % chlorhexidine, as an antiseptic. Plates were incubated as previously described. After 48 hrs the supernatant was removed from the wells of the plates. The wells were washed twice with 1×100 μL PBS (phosphate buffered saline), fixed for 20 minutes with 96% vol. ethanol (96% vol. solution in water) and the biofilm retained at the bottom of the wells was stained with 1 weight % crystal violet (1 weight % solution in water). The bound dye was dissolved with 5% vol. acetic acid (5% vol. solution in water). Quantification of the stained biofilm was performed by measuring the absorbance at 630 nm using a Multiskan Ascent microplate reader (Thermo Scientific).
The experiment was carried out on three different days (thus providing 3 biological replicas) and each day the experiment was carried out in quadruple (thus providing 4 technical replicas) for each combination of bacterium with dipeptide and for each control. For each day and for each combination, the average (mean) of the values obtained (as detailed above) for the four technical replicas was calculated to provide a single value for each combination on each day. The values shown in Tables 7 to 8, below, are the average (mean) of the three single values obtained for each combination of bacterium with dipeptide.
This value was selected in order to exclude low-stimulating metabolites and avoid false positive results.

Met-Pro
exhibited prebiotic effects: prebiotic effects (metabolic activity) ([1]; 24 hrs) | prebiotic effects (metabolic activity) ([1]; 48 hrs) | prebiotic effects (biofilm growth) ([2]; 10 μmol/ml) | prebiotic effects (biofilm growth) ([2]; 20 μmol/ml) | prebiotic effects (biofilm growth) ([2]; 25 μmol/ml)

Phe-Glu
exhibited prebiotic effects: prebiotic effects (metabolic activity) ([1]; 24 hrs) | prebiotic effects (metabolic activity) ([1]; 48 hrs) | prebiotic effects (biofilm growth) ([2]; 5 μmol/ml) | prebiotic effects (biofilm growth) ([2]; 10 μmol/ml)
